Measured values taken from ChEMBL document CHEMBL4308841, “Synthesis, in vitro antiproliferative activity, and kinase inhibitory effects of pyrazole-containing diarylureas and diarylamides” (Eur J Med Chem, 2018).

Assays:
MDA-MB-435 = assay: Growth inhibition of human MDA-MB-435 cells assessed as cell growth at 100 uM incubated for 48 hrs by sulforhodamine B assay relative to control; assay type: functional; settings: MDA-MB-435, 48 h, read-out: Activity
UO-31 = assay: Growth inhibition of human UO31 cells assessed as cell growth at 1 uM incubated for 48 hrs by sulforhodamine B assay relative to control; assay type: functional; settings: UO-31, 48 h, read-out: Activity
HCC 2998 [1] = assay: Growth inhibition of human HCC2998 cells assessed as cell growth at 1 uM incubated for 48 hrs by sulforhodamine B assay relative to control; assay type: functional; settings: HCC 2998, 48 h, read-out: Activity
M14 = assay: Growth inhibition of human M14 cells assessed as cell growth at 1 uM incubated for 48 hrs by sulforhodamine B assay relative to control; assay type: functional; settings: M14, 48 h, read-out: Activity
U-251 = assay: Growth inhibition of human U251 cells assessed as cell growth at 0.1 uM incubated for 48 hrs by sulforhodamine B assay relative to control; assay type: functional; settings: U-251, 48 h, read-out: Activity
SR [2] = assay: Growth inhibition of human SR cells incubated for 48 hrs by sulforhodamine B assay; assay type: functional, cell-based
OVCAR-5 = assay: Growth inhibition of human OVCAR5 cells assessed as cell growth at 0.1 uM incubated for 48 hrs by sulforhodamine B assay relative to control; assay type: functional; settings: OVCAR-5, 48 h, read-out: Activity
HCC 2998 [3] = assay: Growth inhibition of human HCC2998 cells assessed as cell growth at 100 uM incubated for 48 hrs by sulforhodamine B assay relative to control; assay type: functional; settings: HCC 2998, 48 h, read-out: Activity
CAKI-1 = assay: Growth inhibition of human Caki1 cells incubated for 48 hrs by sulforhodamine B assay; assay type: functional, cell-based; settings: CAKI-1, 48 h
MDA-MB-468 = assay: Growth inhibition of human MDA-MB-468 cells assessed as cell growth at 100 uM incubated for 48 hrs by sulforhodamine B assay relative to control; assay type: functional; settings: MDA-MB-468, 48 h, read-out: Activity
OVCAR-3 = assay: Growth inhibition of human OVCAR3 cells assessed as cell growth at 1 uM incubated for 48 hrs by sulforhodamine B assay relative to control; assay type: functional; settings: OVCAR-3, 48 h, read-out: Activity
HCT-116 = assay: Growth inhibition of human HCT116 cells assessed as cell growth at 0.01 uM incubated for 48 hrs by sulforhodamine B assay relative to control; assay type: functional; settings: HCT-116, 48 h, read-out: Activity
SNB-19 = assay: Growth inhibition of human SNB19 cells assessed as cell growth at 1 uM incubated for 48 hrs by sulforhodamine B assay relative to control; assay type: functional; settings: SNB-19, 48 h, read-out: Activity
RXF 393 = assay: Growth inhibition of human RXF393 cells assessed as cell growth at 0.1 uM incubated for 48 hrs by sulforhodamine B assay relative to control; assay type: functional; settings: RXF 393, 48 h, read-out: Activity
RPMI-8226 = assay: Growth inhibition of human RPMI8226 cells assessed as cell growth at 0.1 uM incubated for 48 hrs by sulforhodamine B assay relative to control; assay type: functional; settings: RPMI-8226, 48 h, read-out: Activity
MCF7 [4] = assay: Growth inhibition of human MCF7 cells assessed as cell growth at 100 uM incubated for 48 hrs by sulforhodamine B assay relative to control; assay type: functional; settings: MCF7, 48 h, read-out: Activity
NCI-H226 [5] = assay: Growth inhibition of human NCI-H226 cells assessed as cell growth at 0.1 uM incubated for 48 hrs by sulforhodamine B assay relative to control; assay type: functional; settings: NCI-H226, 48 h, read-out: Activity
SF-539 = assay: Growth inhibition of human SF539 cells assessed as cell growth at 1 uM incubated for 48 hrs by sulforhodamine B assay relative to control; assay type: functional; settings: SF-539, 48 h, read-out: Activity
BT-549 [6] = assay: Growth inhibition of human BT549 cells assessed as cell growth at 100 uM incubated for 48 hrs by sulforhodamine B assay relative to control; assay type: functional; settings: BT-549, 48 h, read-out: Activity
MCF7 [7] = assay: Growth inhibition of human MCF7 cells assessed as cell growth at 1 uM incubated for 48 hrs by sulforhodamine B assay relative to control; assay type: functional; settings: MCF7, 48 h, read-out: Activity
SN12C = assay: Growth inhibition of human SN12C cells assessed as cell growth at 100 uM incubated for 48 hrs by sulforhodamine B assay relative to control; assay type: functional; settings: read-out: Activity
NCI-H226 [8] = assay: Growth inhibition of human NCI-H226 cells assessed as cell growth at 0.01 uM incubated for 48 hrs by sulforhodamine B assay relative to control; assay type: functional; settings: NCI-H226, 48 h, read-out: Activity
BT-549 [9] = assay: Growth inhibition of human BT549 cells assessed as cell growth at 0.1 uM incubated for 48 hrs by sulforhodamine B assay relative to control; assay type: functional; settings: BT-549, 48 h, read-out: Activity
OVCAR-8 = assay: Growth inhibition of human OVCAR8 cells incubated for 48 hrs by sulforhodamine B assay; assay type: functional, cell-based; settings: OVCAR-8, 48 h
HCC 2998 [10] = assay: Growth inhibition of human HCC2998 cells assessed as cell growth at 0.01 uM incubated for 48 hrs by sulforhodamine B assay relative to control; assay type: functional; settings: HCC 2998, 48 h, read-out: Activity
SK-MEL-2 = assay: Growth inhibition of human SK-MEL-2 cells incubated for 48 hrs by sulforhodamine B assay; assay type: functional, cell-based; settings: SK-MEL-2, 48 h
K562 = assay: Growth inhibition of human K562 cells assessed as cell growth at 100 uM incubated for 48 hrs by sulforhodamine B assay relative to control; assay type: functional; settings: K562, 48 h, read-out: Activity
MOLT-4 = assay: Growth inhibition of human MOLT4 cells incubated for 48 hrs by sulforhodamine B assay; assay type: functional, cell-based; settings: MOLT-4, 48 h
SR [11] = assay: Growth inhibition of human SR cells assessed as cell growth at 1 uM incubated for 48 hrs by sulforhodamine B assay relative to control; assay type: functional; settings: read-out: Activity
[12] = read-out: LC50 (the source's name)
[13] = read-out: pLC50 (the source's name) (converted)

Work on COc1cc(Cl)cc(-c2nn(-c3cccc(NC(=O)Nc4ccc(Cl)c(Cl)c4)c3)cc2-c2ccncc2)c1 yielded a growth at 100 µM (MDA-MB-435) of -33%, a growth at 1 µM (UO-31) of 88% and a growth at 1 µM (HCC 2998 [1]) of 91%. For the same molecule, the growth at 1 µM (M14) was 82%, the growth at 0.1 µM (U-251) was 92% and the GI50 (SR [2]; read-out: GI50) was 1540 nM. For the same molecule, the CC50 (SR [2]; [12]) was over 100 µM, the TGI (SR [2]; read-out: TGI) was 53 µM and the GI50 (SR [2]; read-out: pGI50 (converted)) was 1550 nM. The CC50 (SR [2]; [13]) was over 100 µM, the TGI (SR [2]; read-out: pTGI (converted)) was 5.75 µM and the growth at 0.1 µM (OVCAR-5) was 59%. It also gave a growth at 100 µM (HCC 2998 [3]) of -7%, a GI50 (CAKI-1; read-out: GI50) of 2380 nM and a CC50 (CAKI-1; [12]) of over 100 µM. For the same molecule, the TGI (CAKI-1; read-out: TGI) was 15.7 µM, the GI50 (CAKI-1; read-out: pGI50 (converted)) was 2400 nM and the CC50 (CAKI-1; [13]) was over 100 µM. It also gave a TGI (CAKI-1; read-out: pTGI (converted)) of 16.6 µM, a growth at 100 µM (MDA-MB-468) of -18% and a growth at 1 µM (OVCAR-3) of 61%. It also gave a growth at 0.01 µM (HCT-116) of 105%, a growth at 1 µM (SNB-19) of 89% and a growth at 0.1 µM (RXF 393) of 101%. It also gave a growth at 0.1 µM (RPMI-8226) of 100%, a growth at 100 µM (MCF7 [4]) of -13% and a growth at 0.1 µM (NCI-H226 [5]) of 96%. For the same molecule, the growth at 1 µM (SF-539) was 82%, the growth at 100 µM (BT-549 [6]) was -15% and the growth at 1 µM (MCF7 [7]) was 83%. It also gave a growth at 100 µM (SN12C) of 5%, a growth at 0.01 µM (NCI-H226 [8]) of 96% and a growth at 0.1 µM (BT-549 [9]) of 98%. It also gave a GI50 (OVCAR-8; read-out: GI50) of 2300 nM, a CC50 (OVCAR-8; [12]) of over 100 µM and a TGI (OVCAR-8; read-out: TGI) of 11.2 µM. It also gave a GI50 (OVCAR-8; read-out: pGI50 (converted)) of 2290 nM, a CC50 (OVCAR-8; [13]) of over 100 µM and a TGI (OVCAR-8; read-out: pTGI (converted)) of 11.2 µM. For the same molecule, the growth at 0.01 µM (HCC 2998 [10]) was 93%, the GI50 (SK-MEL-2; read-out: GI50) was 1540 nM and the CC50 (SK-MEL-2; [12]) was 8.54 µM. For the same molecule, the TGI (SK-MEL-2; read-out: TGI) was 37.4 µM, the GI50 (SK-MEL-2; read-out: pGI50 (converted)) was 1620 nM and the CC50 (SK-MEL-2; [13]) was 8.51 µM. For the same molecule, the TGI (SK-MEL-2; read-out: pTGI (converted)) was 3.72 µM, the growth at 100 µM (K562) was 3% and the GI50 (MOLT-4; read-out: GI50) was 1590 nM. The CC50 (MOLT-4; [12]) was over 100 µM, the TGI (MOLT-4; read-out: TGI) was 61.3 µM and the GI50 (MOLT-4; read-out: pGI50 (converted)) was 1700 nM. It also gave a CC50 (MOLT-4; [13]) of over 100 µM, a TGI (MOLT-4; read-out: pTGI (converted)) of 6.17 µM and a growth at 1 µM (SR [11]) of 68%.
